From patent US6960470B1 (priority 1998, dated 2005)

What was measured:
GABAA receptor = type: cell-based
[1] = system: AMPA (glutamate subtype) receptor; assay: Whole-cell patch-clamp, evoked inward synaptic current at -60 mV (glutamate currents); type: cell-based; conditions: 2 μM NBQX; whole-cell patch-clamped neurons
Description: Data were prepared as graphs of the effect of agents on the GABAA receptor-mediated transmission in the mutant and wt cells using whole-cell patch-clamping. The data included the evoked synaptic response ([…]) from whole-cell patch-clamped neurons. […] The evoked synaptic responses (averaged up to 15 each) recorded at holding potentials of 0 mV and −60 mV with the stimulating electrode placed in stratum radiatum at site 1, ˜50μm from the recording electrode at site 2, ˜250 μm from the recording electrode and at site two with the stimulus intensity increased ˜3-fold. Graphs were prepared of examples of averaged (up to 15 each) traces from patch-clamp whole-cell recordings-in wt and Δ9 mutation at […] (glutamate currents) and at 0 mV (GABAA currents). The graphs included peak amplitude of response ratios (measured at holding potentials of −60 mV and 0 mV, respectively) from cells in individual slices (n=9 slices each).

Compound	block of outward current (di-synaptic inhibition) (GABAA receptor)	block of inward current at holding potential of −60 mV [1]	block of outward current recorded at 0 mV (GABAA receptor)
NS(=O)(=O)c1cccc2c1c([N+](=O)[O-])cc1nc(O)c(O)nc12 [NBQX]	blocked some of the outward current	completely blocked	
picrotoxin			completely blocked
